# Measurements as given in paper PMC11277489, “Novel Piperazine Derivatives of Vindoline as Anticancer Agents” (International Journal of Molecular Sciences, 2024).
# Legend:
# SF-539 = assay: NCI60 one-dose screen (10 μM), CNS Cancer; format: cell-based, human; settings: Homo sapiens; 10 μM; SF-539, CNS Cancer; read-out: Growth percent rate
# CCRF-CEM = assay: NCI60 one-dose screen (10 μM), Leukemia; format: cell-based; settings: Homo sapiens, 10 μM, Leukemia, read-out: Growth percent rate
# HOP-62 = assay: NCI60 one-dose screen (10 μM), Non-small Cell Lung Cancer; format: cell-based; settings: Homo sapiens; 10 μM; HOP-62, Non-small Cell Lung Cancer; read-out: Growth percent rate
# SK-MEL-5 = assay: NCI60 one-dose screen (10 μM), Melanoma; format: cell-based, human; settings: for activity at 10 µM: Homo sapiens, SK-MEL-5, Melanoma, read-out: Growth percent rate
# NCI-H460 = assay: NCI60 one-dose screen (10 μM), Non-small Cell Lung Cancer; format: cell-based; settings: Homo sapiens; 10 μM; NCI-H460, Non-small Cell Lung Cancer; read-out: Growth percent rate
# SW-620 = assay: NCI60 one-dose screen (10 μM), Colon Cancer; format: cell-based; settings: Homo sapiens; 10 μM; SW-620, Colon Cancer; read-out: Growth percent rate
# SF-295 = assay: NCI60 one-dose screen (10 μM), CNS Cancer; format: cell-based; settings: Homo sapiens; 10 μM; SF-295, CNS Cancer; read-out: Growth percent rate
# [1] = test system: 60 human tumor cell lines (NCI60); assay: NCI60 one-dose screen (10 μM), whole panel; format: cell-based; settings: 10 μM; mean over 60 human cancer cell lines; read-out: Growth percent rate, Mean
# HCT-15 = assay: NCI60 one-dose screen (10 μM), Colon Cancer; format: cell-based; settings: Homo sapiens; 10 μM; HCT-15, Colon Cancer; read-out: Growth percent rate
# SF-268 = assay: NCI60 one-dose screen (10 μM), CNS Cancer; format: cell-based; settings: Homo sapiens; 10 μM; SF-268, CNS Cancer; read-out: Growth percent rate
# MALME-3M = assay: NCI60 one-dose screen (10 μM), Melanoma; format: cell-based; settings: Homo sapiens; 10 μM; MALME-3M, Melanoma; read-out: Growth percent rate
# HCT-116 = assay: NCI60 one-dose screen (10 μM), Colon Cancer; format: cell-based; settings: Homo sapiens; 10 μM; HCT-116, Colon Cancer; read-out: Growth percent rate
# HS 578T = assay: NCI60 one-dose screen (10 μM), Breast Cancer; format: cell-based; settings: Homo sapiens; 10 μM; HS 578T, Breast Cancer; read-out: Growth percent rate
# MOLT-4 = assay: NCI60 one-dose screen (10 μM), Leukemia; format: cell-based, human; settings: for activity at 10 µM: Homo sapiens, MOLT-4, Leukemia, read-out: Growth percent rate
# TK-10 = assay: NCI60 one-dose screen (10 μM), Renal Cancer; format: cell-based; settings: Homo sapiens; 10 μM; TK-10, Renal Cancer; read-out: Growth percent rate
# OVCAR-3 = assay: NCI60 one-dose screen (10 μM), Ovarian Cancer; format: cell-based; settings: Homo sapiens; 10 μM; OVCAR-3, Ovarian Cancer; read-out: Growth percent rate
# M14 = assay: NCI60 one-dose screen (10 μM), Melanoma; format: cell-based; settings: Homo sapiens; 10 μM; M14, Melanoma; read-out: Growth percent rate
# RXF 393 = assay: NCI60 one-dose screen (10 μM), Renal Cancer; format: cell-based, human; settings: Homo sapiens; 10 μM; RXF 393, Renal Cancer; read-out: Growth percent rate
# 786–0 = assay: NCI60 one-dose screen (10 μM), Renal Cancer; format: cell-based; settings: Homo sapiens; 10 μM; 786-0, Renal Cancer; read-out: Growth percent rate
# IGROV1 = assay: NCI60 one-dose screen (10 μM), Ovarian Cancer; format: cell-based; settings: Homo sapiens, IGROV-1; 10 μM; IGROV1, Ovarian Cancer; read-out: Growth percent rate
# SN12C = assay: NCI60 one-dose screen (10 μM), Renal Cancer; format: cell-based; settings: Homo sapiens, 10 μM, Renal Cancer, read-out: Growth percent rate
# SNB-19 = assay: NCI60 one-dose screen (10 μM), CNS Cancer; format: cell-based; settings: Homo sapiens; 10 μM; SNB-19, CNS Cancer; read-out: Growth percent rate
# KM12 = assay: NCI60 one-dose screen (10 μM), Colon Cancer; format: cell-based, human; settings: Homo sapiens; 10 μM; KM12, Colon Cancer; read-out: Growth percent rate
# RPMI-8226 = assay: NCI60 one-dose screen (10 μM), Leukemia; format: cell-based; settings: Homo sapiens; 10 μM; RPMI-8226, Leukemia; read-out: Growth percent rate
# SNB-75 = assay: NCI60 one-dose screen (10 μM), CNS Cancer; format: cell-based, human; settings: Homo sapiens; 10 μM; SNB-75, CNS Cancer; read-out: Growth percent rate
# NCI-H322M = assay: NCI60 one-dose screen (10 μM), Non-small Cell Lung Cancer; format: cell-based; settings: Homo sapiens, 10 μM, Non-small Cell Lung Cancer, read-out: Growth percent rate
# SK-MEL-28 = assay: NCI60 one-dose screen (10 μM), Melanoma; format: cell-based; settings: Homo sapiens; 10 μM; SK-MEL-28, Melanoma; read-out: Growth percent rate
# OVCAR-8 = assay: NCI60 one-dose screen (10 μM), Ovarian Cancer; format: cell-based; settings: Homo sapiens; 10 μM; OVCAR-8, Ovarian Cancer; read-out: Growth percent rate
# COLO 205 = assay: NCI60 one-dose screen (10 μM), Colon Cancer; format: cell-based, human; settings: for activity at 10 µM: Homo sapiens, COLO 205, Colon Cancer, read-out: Growth percent rate
# MCF7 = assay: NCI60 one-dose screen (10 μM), Breast Cancer; format: cell-based; settings: Homo sapiens; 10 μM; MCF7, Breast Cancer; read-out: Growth percent rate
# DU-145 = assay: NCI60 one-dose screen (10 μM), Prostate Cancer; format: cell-based; settings: Homo sapiens; 10 μM; DU-145, Prostate Cancer; read-out: Growth percent rate
# A498 = assay: NCI60 one-dose screen (10 μM), Renal Cancer; format: cell-based; settings: Homo sapiens; 10 μM; A498, Renal Cancer; read-out: Growth percent rate
# HL-60(TB) = assay: NCI60 one-dose screen (10 μM), Leukemia; format: cell-based; settings: Homo sapiens; 10 μM; HL-60(TB), Leukemia; read-out: Growth percent rate
# UACC-257 = assay: NCI60 one-dose screen (10 μM), Melanoma; format: cell-based; settings: Homo sapiens; 10 μM; UACC-257, Melanoma; read-out: Growth percent rate
# U251 = assay: NCI60 one-dose screen (10 μM), CNS Cancer; format: cell-based; settings: Homo sapiens, U-251; 10 μM; U251, CNS Cancer; read-out: Growth percent rate
# LOX IMVI = assay: NCI60 one-dose screen (10 μM), Melanoma; format: cell-based, human; settings: Homo sapiens; 10 μM; LOX IMVI, Melanoma; read-out: Growth percent rate
# NCI-H522 = assay: NCI60 one-dose screen (10 μM), Non-small Cell Lung Cancer; format: cell-based; settings: Homo sapiens; 10 μM; NCI-H522, Non-small Cell Lung Cancer; read-out: Growth percent rate
# SK-MEL-2 = assay: NCI60 one-dose screen (10 μM), Melanoma; format: cell-based; settings: Homo sapiens; 10 μM; SK-MEL-2, Melanoma; read-out: Growth percent rate
# HT29 = assay: NCI60 one-dose screen (10 μM), Colon Cancer; format: cell-based; settings: Homo sapiens, HT-29; 10 μM; HT29, Colon Cancer; read-out: Growth percent rate
# K-562 = assay: NCI60 one-dose screen (10 μM), Leukemia; format: cell-based; settings: Homo sapiens, K562; 10 μM; K-562, Leukemia; read-out: Growth percent rate
# ACHN = assay: NCI60 one-dose screen (10 μM), Renal Cancer; format: cell-based; settings: Homo sapiens, 10 μM, Renal Cancer, read-out: Growth percent rate
# A549/ATCC = assay: NCI60 one-dose screen (10 μM), Non-small Cell Lung Cancer; format: cell-based; settings: Homo sapiens; 10 μM; A549/ATCC, Non-small Cell Lung Cancer; read-out: Growth percent rate
smiles,measurement,setting,value
CC[C@]12C=CCN3CC[C@@]4(c5ccc(OC)cc5N(C)[C@H]4[C@@](O)(C(=O)OC)[C@@H]1OC(=O)CCC(=O)N1CCN(C(c4ccc(F)cc4)c4ccc(F)cc4)CC1)[C@@H]32 [Compound 31],activity at 10 µM,SF-539,-38.4%
same,activity at 10 µM,CCRF-CEM,-81.9%
same,activity at 10 µM,HOP-62,-57%
same,activity at 10 µM,SK-MEL-5,-88%
same,activity at 10 µM,NCI-H460,-60.9%
same,activity at 10 µM,SW-620,-37%
same,activity at 10 µM,SF-295,-61.1%
same,activity at 10 µM,[1],-41.8%
same,activity at 10 µM,HCT-15,3.11%
same,activity at 10 µM,SF-268,7.32%
same,activity at 10 µM,MALME-3M,-16.6%
same,activity at 10 µM,HCT-116,-32.4%
same,activity at 10 µM,HS 578T,-32.6%
same,growth percent rate,"MOLT-4; 10 μM one-dose, MOLT-4 leukemia, negative = lethality",−98.81%
same,activity at 10 µM,MOLT-4,-98.8%
same,activity at 10 µM,TK-10,-32.1%
same,activity at 10 µM,OVCAR-3,-71%
same,activity at 10 µM,M14,0.99%
same,activity at 10 µM,RXF 393,-56.3%
same,activity at 10 µM,786–0,-40.3%
same,activity at 10 µM,IGROV1,-92.2%
same,activity at 10 µM,SN12C,-89.1%
same,activity at 10 µM,SNB-19,8.85%
same,activity at 10 µM,KM12,-50.8%
same,activity at 10 µM,RPMI-8226,-98.1%
same,activity at 10 µM,SNB-75,-43.5%
same,activity at 10 µM,NCI-H322M,-0.86%
same,activity at 10 µM,SK-MEL-28,-6.67%
same,activity at 10 µM,OVCAR-8,-13.2%
same,activity at 10 µM,COLO 205,-45%
same,activity at 10 µM,MCF7,-28.7%
same,activity at 10 µM,DU-145,-3.52%
same,activity at 10 µM,A498,-61.6%
same,activity at 10 µM,HL-60(TB),-98.4%
same,activity at 10 µM,UACC-257,-30.8%
same,activity at 10 µM,U251,-15.1%
same,activity at 10 µM,LOX IMVI,-56%
same,activity at 10 µM,NCI-H522,-22.2%
same,activity at 10 µM,SK-MEL-2,-85.4%
same,activity at 10 µM,HT29,-83.3%
same,activity at 10 µM,K-562,7.65%
same,activity at 10 µM,ACHN,-35.8%
same,activity at 10 µM,A549/ATCC,1.83%
CC[C@]12C=CCN3CC[C@@]4(c5ccc(OC)cc5N(C)[C@H]4[C@@](O)(C(=O)OC)[C@@H]1OC(=O)CCC(=O)N1CCN(c4ccc(C(F)(F)F)cc4)CC1)[C@@H]32 [Compound 28],activity at 10 µM,SF-539,8.28%
same,activity at 10 µM,CCRF-CEM,4.4%
same,activity at 10 µM,HOP-62,30.4%
same,growth percent rate,"SK-MEL-5; 10 μM one-dose, SK-MEL-5 melanoma, negative = lethality",−92.46%
same,activity at 10 µM,SK-MEL-5,-92.5%
same,activity at 10 µM,NCI-H460,1.83%
same,activity at 10 µM,SW-620,20.7%
same,activity at 10 µM,SF-295,1.73%
same,activity at 10 µM,[1],-3.07%
same,activity at 10 µM,HCT-15,6.71%
same,activity at 10 µM,SF-268,13.1%
same,activity at 10 µM,MALME-3M,2.45%
same,activity at 10 µM,HCT-116,29.4%
same,activity at 10 µM,HS 578T,20.1%
same,activity at 10 µM,MOLT-4,18.7%
same,activity at 10 µM,TK-10,-5.03%
same,activity at 10 µM,OVCAR-3,-2.22%
same,activity at 10 µM,M14,-66.8%
same,activity at 10 µM,RXF 393,-12.9%
same,activity at 10 µM,786–0,20.7%
same,activity at 10 µM,IGROV1,-42.3%
same,activity at 10 µM,SN12C,9.74%
same,activity at 10 µM,SNB-19,16.2%
same,activity at 10 µM,KM12,3.83%
same,activity at 10 µM,RPMI-8226,8.8%
same,activity at 10 µM,SNB-75,26.2%
same,activity at 10 µM,NCI-H322M,43.7%
same,activity at 10 µM,SK-MEL-28,15%
same,activity at 10 µM,OVCAR-8,10.7%
same,growth percent rate,"COLO 205; 10 μM one-dose, COLO-205 colon cancer, negative = lethality",−90.33%
same,activity at 10 µM,COLO 205,-90.3%
same,activity at 10 µM,MCF7,3.97%
same,activity at 10 µM,DU-145,15.4%
same,activity at 10 µM,A498,21.6%
same,activity at 10 µM,HL-60(TB),4.32%
same,activity at 10 µM,UACC-257,19.5%
same,activity at 10 µM,U251,12.4%
same,activity at 10 µM,LOX IMVI,-75.8%
same,activity at 10 µM,NCI-H522,-9.16%
same,activity at 10 µM,SK-MEL-2,-84.7%
same,activity at 10 µM,HT29,-50.4%
same,activity at 10 µM,K-562,16.9%
same,activity at 10 µM,ACHN,-3.87%
same,activity at 10 µM,A549/ATCC,13.6%
